Results on seven compounds are retold here after PubChem BioAssay (NCI).

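Where inhibition never reached the appropriate level, the endpoint shown equals the highest concentration tested. Otherwise, values were interpolated linearly from a five-concentration, 48-hour dose response in 96-well plates. TGI: concentration producing complete growth inhibition.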

Among the test systems are NCI-H23 lung; MDA-MB-435; OVCAR-4 ovarian; SNB-19 CNS; SW-620 colon; HCC-2998 colon; SN12C renal; M14 melanoma; OVCAR-3 ovarian; NCI-H522 lung; HS 578T breast; BT-549 breast; HCT-116 colon; NCI-H460 lung; SR leukemia; IGROV1 ovarian; MDA-MB-231 breast; UACC-257 melanoma; U251 CNS; SK-MEL-5 melanoma.
What all share (experiment): NCI tumour cell line growth inhibition, 48 h

With `CC/C=C\C=C/C(=O)N/C=C/CCC`, the TGI with NCI-H23 lung, in the assay with MDA-MB-435, in the assay with OVCAR-4 ovarian, with SNB-19 CNS, with SW-620 colon and with HCC-2998 colon was greater than 100 µM in each case. For the same compound, the TGI is greater than 100 µM in the assay on SN12C renal; greater than 100 µM with M14 melanoma; greater than 100 µM in the assay with OVCAR-3 ovarian; 36 µM in the assay with NCI-H522 lung; greater than 100 µM with HS 578T breast; greater than 100 µM in the assay with BT-549 breast. Moreover, the TGI in the assay on HCT-116 colon, in the assay with NCI-H460 lung, in the assay with SR leukemia, in the assay with IGROV1 ovarian, with MDA-MB-231 breast and in the assay with UACC-257 melanoma was greater than 100 µM throughout. In the assay with U251 CNS, the TGI was greater than 100 µM.
Consider `Nc1ccc(C2SCC(=O)N2NS(=O)(=O)c2cccc(C(=O)O)c2)cc1` (stereo not drawn), for which the TGI with NCI-H23 lung, with MDA-MB-435, in the assay on SK-MEL-5 melanoma, with SNB-19 CNS, in the assay on SW-620 colon and in the assay with HCC-2998 colon was greater than 100 µM throughout. For the same compound, the TGI in the assay with SN12C renal, with M14 melanoma, in the assay on OVCAR-3 ovarian, in the assay with NCI-H522 lung, with HS 578T breast and in the assay with BT-549 breast was greater than 100 µM in each case. Further, the TGI in the assay with HCT-116 colon, in the assay with NCI-H460 lung, with SR leukemia, in the assay with IGROV1 ovarian, with MDA-MB-231 breast and in the assay on UACC-257 melanoma was greater than 100 µM in each case. The compound also yielded a TGI in the assay on U251 CNS greater than 100 µM.
Take `Cn1c(=S)[nH]c(N)c(Cc2ccccc2)c1=O`: the TGI with NCI-H23 lung, with MDA-MB-435, in the assay on SK-MEL-5 melanoma, in the assay with OVCAR-4 ovarian, in the assay on SNB-19 CNS and in the assay with SW-620 colon was greater than 100 µM in each case. The TGI in the assay with HCC-2998 colon, in the assay with SN12C renal, with M14 melanoma, in the assay with OVCAR-3 ovarian, with HS 578T breast and with BT-549 breast was greater than 100 µM in each case. Also, the TGI in the assay with HCT-116 colon was greater than 100 µM; in the assay with NCI-H460 lung it was greater than 100 µM; in the assay with SR leukemia, greater than 100 µM; in the assay on IGROV1 ovarian it was 68.4 µM; in the assay on MDA-MB-231 breast, greater than 100 µM; in the assay on UACC-257 melanoma, greater than 100 µM. This compound came in with a TGI in the assay on U251 CNS greater than 100 µM.
Consider `COc1ccc(Nc2cc(=O)[nH]c(=O)[nH]2)cc1`, for which the TGI with NCI-H23 lung, in the assay on MDA-MB-435, with SK-MEL-5 melanoma, with OVCAR-4 ovarian, in the assay with SNB-19 CNS and in the assay with SW-620 colon was greater than 100 µM throughout. For the same compound, the TGI in the assay with HCC-2998 colon, with SN12C renal, in the assay with M14 melanoma, in the assay on OVCAR-3 ovarian, with HS 578T breast and in the assay on BT-549 breast was greater than 100 µM in each case. Moreover, the TGI in the assay with HCT-116 colon, with NCI-H460 lung, in the assay with SR leukemia, with IGROV1 ovarian, with MDA-MB-231 breast and in the assay on UACC-257 melanoma was greater than 100 µM in each case. This compound returned a TGI in the assay on U251 CNS greater than 100 µM.
In the case of `CC(C)C(/C=C/c1ccc(Cl)cc1)=N\NC(=O)N/N=C(/C=C/c1ccc(Cl)cc1)C(C)C`, the TGI with NCI-H23 lung is 55.9 µM; in the assay with MDA-MB-435, 87.6 µM; in the assay with SK-MEL-5 melanoma it was greater than 100 µM; in the assay on OVCAR-4 ovarian it was 36 µM; with SNB-19 CNS it was 38.8 µM; with SW-620 colon it was greater than 100 µM. The TGI in the assay with HCC-2998 colon was greater than 100 µM; with SN12C renal it was 33.7 µM; in the assay with M14 melanoma, 60 µM; with OVCAR-3 ovarian, 35.8 µM; in the assay with HS 578T breast, 50.8 µM; with BT-549 breast, 97.9 µM. Moreover, the TGI was 39 µM in the assay with HCT-116 colon; 54.8 µM in the assay on NCI-H460 lung; 80.7 µM in the assay with SR leukemia; 94.7 µM in the assay with IGROV1 ovarian; 49.4 µM in the assay with MDA-MB-231 breast; greater than 100 µM in the assay with UACC-257 melanoma. Further, the TGI in the assay on U251 CNS amounted to 30.6 µM.
For `Cc1ccc(-c2cc(=O)c(=O)[nH][nH]2)cc1`, the TGI with NCI-H23 lung, in the assay on MDA-MB-435, in the assay on SK-MEL-5 melanoma, in the assay on OVCAR-4 ovarian, in the assay with SW-620 colon and in the assay on HCC-2998 colon was greater than 100 µM throughout. Moreover, the TGI in the assay with SN12C renal, with M14 melanoma, in the assay with OVCAR-3 ovarian, with NCI-H522 lung, in the assay with HS 578T breast and in the assay on BT-549 breast was greater than 100 µM in each case. For the same compound, the TGI in the assay with HCT-116 colon, in the assay on NCI-H460 lung, with SR leukemia, in the assay on IGROV1 ovarian, in the assay with MDA-MB-231 breast and in the assay with UACC-257 melanoma was greater than 100 µM each time. The TGI with U251 CNS is greater than 100 µM.
With `O=C(NC(OCc1ccccc1)(C(F)(F)F)C(F)(F)F)OCc1ccccc1`, the TGI with NCI-H23 lung was 25.8 µM; with MDA-MB-435 it was 31 µM; in the assay with SK-MEL-5 melanoma, 29.3 µM; with SNB-19 CNS it was 29.2 µM; with SW-620 colon it was 31.1 µM; with HCC-2998 colon, 28.8 µM. The TGI was determined as 29.4 µM in the assay on SN12C renal; 33 µM in the assay on M14 melanoma; 28.6 µM in the assay on OVCAR-3 ovarian; 26.5 µM in the assay with NCI-H522 lung; 31.3 µM in the assay on HS 578T breast; 28.7 µM in the assay on BT-549 breast. In addition, the TGI was determined as 29.9 µM with HCT-116 colon; 29.6 µM in the assay with NCI-H460 lung; 26.8 µM in the assay with SR leukemia; 28.6 µM with IGROV1 ovarian; 32.3 µM in the assay on MDA-MB-231 breast; 27.3 µM in the assay with UACC-257 melanoma. This compound also had a TGI in the assay on U251 CNS of 27.1 µM.
